We go through one molecule from patent publication US6599943B1, “Use of hydroxyguanidines” (WaPharm AB, priority 1996, dated 2003).

Test [1] concerns the target T1, crude spleen cytosol (hydroxyguanidine reducing activity) (Rattus norvegicus, UniProt P22985).
T1 construct: from tissue; host or cells: rat spleen (70,000 x g supernatant)
The test can be described thus: Reduction of guanoxabenz to guanabenz by crude spleen cytosol, HPLC. The test is classed as biochemical. On the procedure: Preparation of crude spleen cytosol. Rat spleens were homogenised (1:10 w/v) in ice-cold […] Tris, 1.5 mM EDTA, pH 7.5 with glass/Teflon homogenizer. The homogenate was centrifuged at 30,000×g for 15 min at 4° C. and stored frozen at −80° C. After thawing the supernatant was centrifuged at 70,000×g for 1 hr at 4° C. and used for the assays.
Identification of a reaction product derived from hydroxyguanidine. Crude spleen cytosol was incubated at 25° C. with 70 μM guanoxabenz (2(2,6-dichlorophenyl)methylene-N-hydroxyhydrazine carboxi-imidamide) in the presence of 25 mM Tris-HCl, 0.75 mM EDTA, the total volume being 4 ml. Aliquots of 250 μl were then withdrawn from the reaction mixture after 1, 30, 60, 90 or 240 minutes and heated in a water bath to 80° C. for 5 minutes. The sample was then centrifuged and the supernatant filtered through a 0.22 μm Millipore filter whereafter 200 μl of the filtrate was injected into a reverse phase chromatography column (Waters Symmetry C8) equilibrated in 40% methanol, 60% 10 mM Na-acetate buffer, pH 4.5. The elution speed was 0.5 ml/min and the eluted substances were detected by a UV-monitor set at 260 nm.
In FIG. 1 is shown exemplary details on the time course of appearence of the product.
Preparation of the enzymatic reaction product for NMR-analysis. To obtain enough of the product for NMR studies guanoxabenz (500 μM) was pre-incubated with the crude spleen cytosol for 1 hr. […] Total volume of the reaction mixture was 4 ml. After the incubation the reaction mixture was boiled, centrifuged and filtered, essentially as described above, and aliquots of the materials injected onto the HPLC column. […] The fractions containing the product peak were collected, pooled and lyophilized and then subjected to NMR-analysis.

A further test has as its system rat heart cytosol. The test can be described thus: Hydroxyguanidine reducing activity of heart cytosol by radioligand binding assay. The test is classed as biochemical. The conditions noted are these: 70 μM guanoxabenz, 1 hr at 25° C. On the procedure: Assay of hydroxyguanidine reducing activity by radioligand binding. The assay is based on the possibility to measure the affinity of ligands to α2-adrenoceptors by using radioligand binding. In a typical experiment small aliquots of the sample to be measured is added to an assay containing membranes rich in α2-adrenoceptors as well as a suitable concentration of a radioligand capable of binding to α2-adrenoceptors. After the assay mixture has been incubated for a suitable time, to achieve equilibrium, the amount of radioligand bound to the membranes is measured by washing and filtering on GF/C glass fibre filters using methods that are well described in literature, and which are commonly referred to as radioligand binding. The ability of the hydroxyguanidine and its product to inhibit the binding of the radioligand to the α2-adrenoceptor constituted a measure of the hydroxyguanidine/guanidine activity of the reaction mixture. A preferred hydroxyguanidine is one which corresponding guanidine show substantially different affinity compared to the hydroxyguanidine itself. A most preferred example of such a hydroxyguanidine is guanoxabenz.
In a more more exact version of the assay the “apparent affinity” of the mixture of hydroxyguanidine and guanidine-product is measured by constructing a complete competition curve for each sample to be measured. This is achieved by adding different dilutions of the reaction mixture to the radioligand binding assay. Since the sum of the concentration of the hydroxyguanidine and the guanidine product is known, the “apparent affinity” of the mixture can be calculated from the radioligand binding data using standard procedures for radioligand binding data analysis (Uhlén and Wikberg,1991). For the purpose of the present studies the apparent affinity of the reaction mixture was estimated from competition data by using a radioligand binding analysis computer software package (Wan System AB, Trillvägen 13, S-905 92 Umeå, Sweden). The fraction (q) of guanidine product obtained is then given by: [formula] […]

In test [2] the target is T2, bovine milk xanthine oxidase (Bos taurus, UniProt P80457).
Target sequence in this assay (P80457 2-1332): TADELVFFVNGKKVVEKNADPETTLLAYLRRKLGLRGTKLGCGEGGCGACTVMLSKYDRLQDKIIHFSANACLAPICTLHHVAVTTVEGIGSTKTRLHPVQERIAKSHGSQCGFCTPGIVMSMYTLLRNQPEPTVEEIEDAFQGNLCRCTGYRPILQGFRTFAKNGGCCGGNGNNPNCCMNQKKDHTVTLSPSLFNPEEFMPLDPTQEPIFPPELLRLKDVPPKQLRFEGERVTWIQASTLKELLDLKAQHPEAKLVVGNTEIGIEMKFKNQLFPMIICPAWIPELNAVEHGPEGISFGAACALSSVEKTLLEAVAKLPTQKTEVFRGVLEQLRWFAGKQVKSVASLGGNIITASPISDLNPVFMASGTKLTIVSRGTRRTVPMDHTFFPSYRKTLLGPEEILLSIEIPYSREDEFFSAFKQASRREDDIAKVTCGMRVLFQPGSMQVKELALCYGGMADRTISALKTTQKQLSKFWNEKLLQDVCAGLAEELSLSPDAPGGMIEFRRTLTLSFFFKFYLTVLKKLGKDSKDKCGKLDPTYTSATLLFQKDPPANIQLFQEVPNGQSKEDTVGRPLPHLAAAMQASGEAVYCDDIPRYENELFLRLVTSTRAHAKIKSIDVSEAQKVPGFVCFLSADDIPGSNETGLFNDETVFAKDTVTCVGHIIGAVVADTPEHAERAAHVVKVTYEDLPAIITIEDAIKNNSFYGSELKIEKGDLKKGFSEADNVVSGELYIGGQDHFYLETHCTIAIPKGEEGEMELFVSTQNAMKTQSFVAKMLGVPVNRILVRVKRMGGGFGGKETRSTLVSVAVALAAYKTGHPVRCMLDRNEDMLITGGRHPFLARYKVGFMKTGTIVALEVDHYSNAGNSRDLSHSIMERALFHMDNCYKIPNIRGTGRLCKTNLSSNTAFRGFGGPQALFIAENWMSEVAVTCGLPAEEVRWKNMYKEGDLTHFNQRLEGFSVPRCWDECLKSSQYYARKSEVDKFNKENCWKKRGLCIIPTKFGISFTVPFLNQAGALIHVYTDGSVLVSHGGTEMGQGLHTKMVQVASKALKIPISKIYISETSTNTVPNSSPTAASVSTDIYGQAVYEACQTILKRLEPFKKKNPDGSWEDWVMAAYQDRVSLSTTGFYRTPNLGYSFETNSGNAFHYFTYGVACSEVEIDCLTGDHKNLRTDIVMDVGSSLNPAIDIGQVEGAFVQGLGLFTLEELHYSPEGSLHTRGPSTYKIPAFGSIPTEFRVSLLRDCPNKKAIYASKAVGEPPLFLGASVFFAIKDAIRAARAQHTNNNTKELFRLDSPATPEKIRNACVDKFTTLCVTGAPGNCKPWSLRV
Description: Capacity of allopurinol to inhibit the reduction of hydroxyguanidines by xanthine oxidase. […] In these tests varying amounts of guanoxabenz was added to assays yielding 150 μl final volumes and containing final concentrations 0.004 units/ml of bovine milk xanthine oxidase (Sigma, St. Louis, MO., USA), 100 μM xanthine, 20 μM allopurinol, 50 pM α2-adrenoceptors (in HT29 cell membranes), 33 mM Tris HCl, 1 mM EDTA, pH 7.5, and incubating for 1 hour at 25° C.
Test [3] concerns the target T2, bovine milk xanthine oxidase. In words: Capacity to sustain oxidation of xanthine by xanthine oxidase in the absence of oxygen, spectrophotometric. In kind it is biochemical. Details: host or cells: bovine milk. The note with it: 50 μM hydroxyguanidine, 50 μM xanthine, 0.05 units/ml xanthine oxidase, anaerobic, pH 7.5, 20° C., blank subtracted. The protocol: Capacities of a series of hydroxyguanidine to sustain the oxidation of xanthine by xanthine oxidase in the absence of oxygen. The capacities of various hydroxyguanidines to sustain the oxidation of xanthine was assayed by using a spectrophotometric method. In this method bovine milk xanthine oxidase was injected to a Helma® sealable cuvette for anaerobic application thereby creating 1 ml of a reaction mixture that contained reagents as follows: 50 μM of a hydroxyguanidine, 50 μM xanthine, 0.05 units/ml bovine milk xanthine oxidase, 50 mM Tris and 1.5 mM EDTA; the pH of the reaction mixture being 7.5, and the temperature 20° C. Anaerobic conditions were assured by pre-gassing all solutions used for 5-10 min, with nitrogen. The rate of formation of uric acid was monitored spectrophotometrically by measuring the increase in absorbance at 295 nm (the absorption maximum for uric acid) at intervals. The relative capacities of the hydroxyguanidines to sustain oxidation of xanthine were estimated from the derivative of the initial linear phase of the curves. To obtain blank readings an equal volume of the solvent of the hydroxyguanidine (water) was added to the reaction mixture in separate experiments and the initial rate of absorbance change was substracted from the rate readings of the tested hydroxyguanidine.
Exemplary initial rates for the rate of the support of the oxidation of xanthine obtained by assaying the exemplary hydroxyguanidines listed above by the method in the present example are furthermore given in Table 2: […]
Target sequence in this assay (P80457 whole entry): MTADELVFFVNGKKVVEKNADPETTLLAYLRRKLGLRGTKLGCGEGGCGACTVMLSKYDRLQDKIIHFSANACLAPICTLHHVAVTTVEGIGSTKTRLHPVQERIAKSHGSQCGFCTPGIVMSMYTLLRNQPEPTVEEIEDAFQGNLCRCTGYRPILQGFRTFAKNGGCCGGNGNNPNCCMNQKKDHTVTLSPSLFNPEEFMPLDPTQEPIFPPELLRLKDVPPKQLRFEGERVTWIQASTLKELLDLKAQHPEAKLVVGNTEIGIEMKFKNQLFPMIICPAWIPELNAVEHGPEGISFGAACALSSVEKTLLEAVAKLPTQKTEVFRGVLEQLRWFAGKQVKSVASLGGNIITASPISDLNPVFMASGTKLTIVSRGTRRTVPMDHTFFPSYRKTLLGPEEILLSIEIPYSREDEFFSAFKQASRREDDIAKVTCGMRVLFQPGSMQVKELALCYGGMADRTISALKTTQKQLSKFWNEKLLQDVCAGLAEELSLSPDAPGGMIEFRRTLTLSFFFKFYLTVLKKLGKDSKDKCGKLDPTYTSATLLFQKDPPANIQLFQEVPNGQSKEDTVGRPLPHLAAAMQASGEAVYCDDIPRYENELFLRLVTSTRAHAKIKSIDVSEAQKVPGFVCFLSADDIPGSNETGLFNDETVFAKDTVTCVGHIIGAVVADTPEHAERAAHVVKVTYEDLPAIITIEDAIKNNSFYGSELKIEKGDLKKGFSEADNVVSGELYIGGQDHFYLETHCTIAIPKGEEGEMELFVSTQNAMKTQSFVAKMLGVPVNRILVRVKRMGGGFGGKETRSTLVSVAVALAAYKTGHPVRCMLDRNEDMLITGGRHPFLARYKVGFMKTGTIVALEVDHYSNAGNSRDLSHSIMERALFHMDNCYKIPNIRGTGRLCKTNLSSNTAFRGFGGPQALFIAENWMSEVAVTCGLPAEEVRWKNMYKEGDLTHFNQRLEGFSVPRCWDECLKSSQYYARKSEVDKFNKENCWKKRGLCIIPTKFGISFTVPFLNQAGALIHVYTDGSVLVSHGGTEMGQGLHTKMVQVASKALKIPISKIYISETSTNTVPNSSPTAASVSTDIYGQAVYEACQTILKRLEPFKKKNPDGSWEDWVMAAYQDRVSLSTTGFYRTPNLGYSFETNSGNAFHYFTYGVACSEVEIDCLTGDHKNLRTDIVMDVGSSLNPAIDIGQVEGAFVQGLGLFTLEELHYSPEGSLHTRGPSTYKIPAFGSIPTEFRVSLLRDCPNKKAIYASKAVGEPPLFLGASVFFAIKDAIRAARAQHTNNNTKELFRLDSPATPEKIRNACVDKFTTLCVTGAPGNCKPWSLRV

The mark [4] stands for this setting: 70 μM guanoxabenz, 25° C., after 1 minute incubation, HPLC 260 nm.
Setting [5] is: 70 μM guanoxabenz, after 1 hour.

T1 sequence (P22985 whole entry): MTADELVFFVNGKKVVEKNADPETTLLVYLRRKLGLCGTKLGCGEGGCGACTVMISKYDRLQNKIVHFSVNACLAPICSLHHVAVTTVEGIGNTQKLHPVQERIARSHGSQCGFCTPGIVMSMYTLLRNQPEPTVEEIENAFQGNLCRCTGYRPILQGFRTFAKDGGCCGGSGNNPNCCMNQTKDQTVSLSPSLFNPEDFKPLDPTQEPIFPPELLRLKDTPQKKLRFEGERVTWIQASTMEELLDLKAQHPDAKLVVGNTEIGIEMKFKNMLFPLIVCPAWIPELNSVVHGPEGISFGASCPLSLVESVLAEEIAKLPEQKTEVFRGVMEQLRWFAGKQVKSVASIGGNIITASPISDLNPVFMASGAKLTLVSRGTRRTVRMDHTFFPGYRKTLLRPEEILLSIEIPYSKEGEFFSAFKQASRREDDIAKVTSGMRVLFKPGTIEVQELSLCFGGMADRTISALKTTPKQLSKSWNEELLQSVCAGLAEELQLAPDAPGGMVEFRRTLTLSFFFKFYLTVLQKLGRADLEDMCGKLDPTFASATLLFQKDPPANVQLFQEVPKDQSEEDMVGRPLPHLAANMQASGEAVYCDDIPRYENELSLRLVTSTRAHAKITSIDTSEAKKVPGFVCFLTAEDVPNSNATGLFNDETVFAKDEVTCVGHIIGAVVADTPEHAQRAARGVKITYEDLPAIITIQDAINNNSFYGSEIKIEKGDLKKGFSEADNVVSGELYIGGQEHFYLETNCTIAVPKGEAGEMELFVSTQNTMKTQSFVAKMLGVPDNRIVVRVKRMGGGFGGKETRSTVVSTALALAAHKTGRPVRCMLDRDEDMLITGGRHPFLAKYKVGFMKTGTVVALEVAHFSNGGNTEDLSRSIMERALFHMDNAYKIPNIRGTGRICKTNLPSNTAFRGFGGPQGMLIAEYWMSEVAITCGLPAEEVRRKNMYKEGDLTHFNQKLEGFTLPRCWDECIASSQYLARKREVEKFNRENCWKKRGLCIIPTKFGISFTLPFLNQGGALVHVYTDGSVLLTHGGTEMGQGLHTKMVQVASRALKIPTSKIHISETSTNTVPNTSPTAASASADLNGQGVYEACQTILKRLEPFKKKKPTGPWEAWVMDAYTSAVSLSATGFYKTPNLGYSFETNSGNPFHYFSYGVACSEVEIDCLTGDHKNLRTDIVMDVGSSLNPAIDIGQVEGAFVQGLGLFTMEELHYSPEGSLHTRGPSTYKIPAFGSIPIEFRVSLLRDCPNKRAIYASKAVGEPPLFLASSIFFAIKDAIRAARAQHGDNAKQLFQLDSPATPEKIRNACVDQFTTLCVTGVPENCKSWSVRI

For the molecule `N=C(NO)NN=Cc1c(Cl)cccc1Cl` [Guanoxabenz, 2(2,6-dichlorophenyl)methylene-N-hydroxyhydrazine carboxi-imidamide], in test [1] (setting [4]), the “UV-absorption corresponding to the guanabenz peak” value is recorded as 5% and the “UV-absorption in the guanoxabenz peak” value was determined as 95%. Besides, in test [1] (setting [5]), the “guanabenz peak as part of total absorbance of the chromatograms” value was “about ⅓” and the “guanoxabenz peak as part of total absorbance of the chromatograms” value was “⅔”. Moreover, in test [1] (70 μM guanoxabenz, after 4 hours), the “size of guanabenz and guanoxabenz peaks” value is “about equal size”. The “peak corresponding to guanabenz, share of UV-absorbing material (260 nm)” value in test [1] (500 μM guanoxabenz, 1 hr, MgCl2 (2 mM) and DTT (2 mM)) is “more than 99%”. In addition, in the test with rat heart cytosol, the “concentration of guanabenz in the sample” value came out at 6.3 µM, the “conversion of guanoxabenz to guanabenz” value is reported as 9% and the “q (fraction of guanidine product)” value is reported as 0.09. For the same molecule, in test [2] (in the absence of allopurinol), the “conversion of guanoxabenz to guanabenz” value is recorded as “about 88%”. The “guanoxabenz converted to guanabenz” value in test [2] (in the presence of allopurinol (20 μM)) was “none”. For the same molecule, the “V = 1000 × (Δabs 295 nm) min^−1 (initial rate of the support of the oxidation of xanthine)” value in test [3] is recorded as 40 1000 × (Δabs 295 nm) min^−1.
